From patent publication US4055648A, “Papaverine thienyl-carboxylates and medicaments containing them” (Choay S.A., priority 1974, dated 1977)
Entries after “also recorded” stand apart in the source; their conditions may differ. Structures can show the parent of a compound that is named as a salt.

Experiments:
platelet adhesivity = assay: in vivo platelet adhesivity in thrombin-sensitized rabbit; conditions: thrombin 20 U i.v.
Method: (§1) The technique used is that described in the study "Disseminated and localized intravascular coagulations" of C. Raby, Masson et Cie, 1970, p. 91-93.
(§2) The parameter used in this technique is the level of platelet adhesivity. The blood to be tested is run through a column of glass beads. Platelet counts are carried out on the blood before and after passage respectively through the glass beads. The difference between these two counts enables the level of platelet adhesivity to be estimated. Comparison of the adhesivity ratios, measured in the treated animals and in the controlled animals, enables the effect of the product under test to be estimated.
In the in vivo test the animal to be tested (the rabbit) is injected with thrombin (20 U) by the intravenous route, for the purpose of sensitizing the platelets, and the product under study is then injected. The behavior of the platelets is studied by samples taken before and after administration of the product under study.
(§3) Papaverine thienyl-2-carboxylate has, in all these tests, been applied in the dissolved state in a 1 % aquous solution of methanol in isotonic chloride solution, in the proportion of 13 mg of papaverine thienyl-2-carboxylate per 100 ml of this solution.
30 Animals were treated in the in vivo tests:
10 animals with the thrombin alone (control animals), […]

[1] = system: unilateral cerebral oedema; assay: unilateral cerebral oedema: cortical electrogenesis ("R" index) and residual cortical reactivity, intraduodenal route; format: in vivo, rabbit
Method: The effect of a medicament on the oxygen and glucose metabolisms is estimated, in this test, by the reduction in the deleterious effects of oedema on certain parameters with respect to the controls.
The technique used is that described in the work "Aggressology" 1972, 13, Vol. IV, p. 257-259 (M.G. Borzex, M. Labos, J. Cahn). The principle of the test consists of producing unilateral ablation of a bone flap of 7 to 10 mm diameter in the occipital region. The incision, 48 hours later, of the dura mater or dural (membrane which surrounds the brain) results in the formation of an oedema.
Two essential parameters are selected to judge the seriousness of the oedematous effect and to subsequently permit estimation of the effects of the compound under study: electrogenesis on the "injured" hemisphere and the development of residual cortical reactivity in this same hemisphere.
The electrogenesis is judged by variations in the index (R), defined as the ratio of the number of rapid rhythms (theta arousal rhythm) to the number of slow waves of the electrocorticogram (determined by electroencephalography). On the injured side, the size of the slow waves tends to increase and that of the thetarhythm connected with the arousal response to be eliminated.
The residual cortical reactivity of the hemisphere carrying the cerebral oedema expresses the percentage of reactivity which persists with regard to a sensorial stimulation (auditive stimulation or nociceptive stimulation of the cutanous nerve ends by pinching of the dorsal skin) despite the oedematous degradation.
An active medicament tends to increase the value of the "R" index and to reestablish the residual cortical reactivity of the animals which have undergone the operation. The activities of the medicament expressed in % growth for the index R, and in % growth for the residual cortical reactivity, are compared with results observed in the controls.
The study was carried out on 42 male rabbits, active, of average weight 2.5 kg (and in eight control animals). The product to be tested (papaverine thienyl-2-carboxylate) was administered by the intraduodenal route, […] after ablation of the bone flap and just before the incision of the dural. This route of administration was selected since it is equivalent to the administration by the oral route.
The rabbits studied were divided in the following manner:
a series of eight "control" animals receiving 2 ml/kg of isotonic chloride solution;
three series of eight rabbits, each having received respectively 5, 10 and 20 mg/kg of papaverine hydrochloride;
two series of eight animals, each receiving respectively 6.2 and 12.4 mg/kg of papaverine thienyl-2-carboxylate (dissolved in alcoholized water, containing 1 ml of alcohol per 30 ml of water);
lastly, two rabbits receiving 2 mg/kg of papaverine hydrochloride dissolved in alcoholized water.
The doses of 5 and 10 mg/kg of papaverine hydrochloride correspond respectively to doses of 6.2 and 12.4 mg/kg of papaverine thienyl-2-carboxylate, if reduced to the corresponding doses of papaverine-base (respectively 4.51 and 9.02 mg/kg).
The development of the two above indicated parameters (expressed below in average values) is observed for 30 hours following the incision of the dural.

LD50 by the oral route = conditions: in vivo, mouse
Text: Study of the LD50 (by the oral route) in the mouse has established the complete inoccuousness of papaverine thienyl-carboxylates.

solubility = format: physicochemical
[2] = system: platelet adhesivity; disturbances of electrogenesis at the level of the brain; assay: overall comparison of papaverinic activity (platelet adhesivity, brain disturbances, cortical reactivity); conditions: associated with / expressed as papaverine base
[3] = system: platelet adhesivity (blood); assay: in vitro platelet adhesivity (glass bead column, Raby technique); format: cell-based; conditions: at equal doses expressed in terms of papaverine base
Method: as §1, §2
In in vitro test the levels of platelet adhesivity measured on control specimens of blood and on blood specimens to which have previously been added doses of the product under test, are compared.
as §3

[4] = administration in repeated doses; cited from earlier work

## COc1ccc(Cc2nccc3cc(OC)c(OC)cc23)cc1OC [papaverine citrate, reference compound]
Platelet adhesivity; 32 γ/ml (20 γ/ml papaverine base)
  effect on platelet adhesivity: inactive

## COc1ccc(Cc2nccc3cc(OC)c(OC)cc23)cc1OC [papaverine hydrochloride, reference compound]
[1]; 5 mg/kg intraduodenal (4.51 mg/kg papaverine base), hydrochloride
  activity in cerebral oedema: practically inactive; also recorded: practically ineffective
[1]; 10 mg/kg intraduodenal
  treated animals with biological effect: about 50%
[1]; 10 mg/kg intraduodenal, 2 hours following administration
  rabbits with improved residual cortical reactivity: four rabbits out of eight
[1]; 10 mg/kg intraduodenal, 2 hours following administration, average in eight rabbits
  improvement of residual cortical reactivity (average): 29%
[1]; 10 mg/kg intraduodenal, between 4 and 6 hours
  rise in the "R" index: 14%
[1]; 10 mg/kg intraduodenal, first 4 hours
  rise in the "R" index: 19%
[1]; 20 mg/kg intraduodenal
  animals affected ("R" ratio): six animals in eight
[1]; 20 mg/kg intraduodenal, between 4 and 6 hours
  improvement of residual cortical reactivity: about 23%
[1]; 20 mg/kg intraduodenal, during 4 hours, same proportion as "R" ratio
  improvement of residual cortical reactivity: improved in the same proportion

## COc1ccc(Cc2nccc3cc(OC)c(OC)cc23)cc1OC [papaverine thienyl-2-carboxylate]
Platelet adhesivity; 2.88 γ/ml (2.10 γ/ml papaverine base)
  effect on platelet adhesivity: act favourably on the adhesivity rate of the platelets
LD50 by the oral route
  LD50 at 48 h: 1300 mg/kg
solubility
  solubility in methanol: Soluble
solubility; warm ethanol
  solubility in warm ethanol: Soluble
[2]
  papaverinic activity compared with known papaverine salts: to a much higher degree; also recorded: distinctly higher than the salts of papaverine used until now
[3]
  activity relative to known salts of papaverine: considerably greater than that of the known salts of papaverine used
[1]; 6.2 mg/kg intraduodenal
  activity in cerebral oedema: active
  effect compared with papaverine hydrochloride 20 mg/kg: rather similar to that exerted by a dose of 20 mg/kg of papaverine hydrochloride
[1]; 6.2 mg/kg intraduodenal (4.51 mg/kg papaverine base)
  rabbits with very distinct improvement of the two parameters: five rabbits out of eight
[1]; 6.2 mg/kg intraduodenal, between second and fourth hours, average in eight rabbits
  extension in the duration of the arousal reactions on the injured hemisphere: 45.4%
[1]; 6.2 mg/kg intraduodenal, five rabbits out of eight
  duration of improvement of the two parameters: at least 4 hours
[1]; 12.4 mg/kg intraduodenal
  effect compared with papaverine hydrochloride 20 mg/kg: slightly more intense effect and more prolonged than a dose twice as great of papaverine hydrochloride
  persistence of improvement of residual cortical reactivity: remaining substantially stable during the first 6 hours
  rabbits with particularly distinct effect: seven rabbits out of eight
[1]; 12.4 mg/kg intraduodenal (9.02 mg/kg papaverine base)
  average rise in the "R" index: 38.5%
[1]; 12.4 mg/kg intraduodenal, maximum effect between 2 and 4 hours, eight rabbits
  average improvement of residual cortical reactivity: 54.2%
[1]; intraduodenal
  activity on residual cortical reactivity compared with papaverine hydrochloride: much more marked activity
[1]; intraduodenal, collected results
  activity compared with papaverine hydrochloride: distinctly more active than papaverine hydrochloride

## COc1ccc(Cc2nccc3cc(OC)c(OC)cc23)cc1OC [papaverine thienyl-3-carboxylate, Papaverine thienyl-3-carboxylate]
solubility; hot ethanol
  solubility in hot ethanol: Soluble
solubility
  solubility in methanol: Soluble
solubility; water, read-out: solutions in water, content of product
  solubility: ≤ 10000 µg/mL

## COc1ccc(Cc2nccc3cc(OC)c(OC)cc23)cc1OC [papaverine]
[4]
  secondary effects: somnolence, constipation, increased excitability of the reflexes and digestive disorders
